# Assay results from US20230278972A1, “SUBSTITUTED HALOALKYL SULFONANILIDE HERBICIDES” (FMC Corporation, priority 2020, published 2023).
# What was measured:
# Assay type in all cases: in vivo
# [1] = system: ragweed (common ragweed, Ambrosia artemisiifolia); experiment: Test A1 postemergence, ragweed; settings: Postemergence
# Description: (§1) Seeds of plant species selected from, blackgrass (Alopecurus myosuroides), corn (Zea mays), Foxtail, Giant (giant foxtail, Setaria faberi), goosegrass (Eleusine indica), kochia (Bassia scoparia), Oat, Wild (wild oat, Avena fatua), Pigweed, Palmer (palmer amaranth, palmer pigweed, Amaranthus palmeri), ragweed (common ragweed, Ambrosia artemisiifolia), Ryegrass, Italian (Italian ryegrass, Lolium multiflorum), soybean (Glycine max), and wheat (Triticum aestivum) were planted into a blend of loam soil and sand and treated preemergence with a directed soil spray using test chemicals formulated in a non-phytotoxic solvent mixture which included a surfactant. At the same time, plants selected from these crop and weed species and also galium (catchweed bedstraw, Galium aparine) and horseweed (Erigeron canadensis) were planted in pots containing the same blend of loam soil and sand and treated with postemergence applications of test chemicals formulated in the same manner. Plants ranged in height from 2 to 10 cm and were in the one- to two-leaf stage for the postemergence treatment. […] A dash (-) response means no test result.
# rice (Oryza sativa) = experiment: Test B1 flooded paddy test, rice; settings: 250 g ai/ha, Flood, applied to paddy water, 2-leaf stage, visually evaluated after 10 to 14 days
# Description: (§2) A dash (-) response means no test result.
# [2] = system: Ryegrass, Italian (Italian ryegrass, Lolium multiflorum); experiment: Test A1 postemergence, Ryegrass, Italian; settings: Postemergence
# Description: as §1
# [3] = system: Pigweed, Palmer (palmer amaranth, palmer pigweed, Amaranthus palmeri); experiment: Test A1 postemergence, Pigweed, Palmer; settings: Postemergence
# Description: as §1
# [4] = system: wheat (Triticum aestivum); experiment: Test A1 preemergence, wheat
# Description: as §1
# [5] = system: Oat, Wild (wild oat, Avena fatua); experiment: Test A1 postemergence, Oat, Wild; settings: Postemergence
# Description: as §1
# [6] = system: blackgrass (Alopecurus myosuroides); experiment: Test A1 preemergence, blackgrass
# Description: as §1
# [7] = system: goosegrass (Eleusine indica); experiment: Test A1 postemergence, goosegrass; settings: Postemergence
# Description: as §1
# [8] = system: Ryegrass, Italian (Italian ryegrass, Lolium multiflorum); experiment: Test A1 preemergence, Ryegrass, Italian
# Description: as §1
# corn (Zea mays) [9] = experiment: Test A1 preemergence, corn
# Description: as §1
# [10] = system: Foxtail, Giant (giant foxtail, Setaria faberi); experiment: Test A1 postemergence, Foxtail, Giant; settings: Postemergence
# Description: as §1
# [11] = system: barnyardgrass (Echinochloa crus-galli); experiment: Test B1 flooded paddy test, barnyardgrass; settings: 250 g ai/ha, Flood, applied to paddy water, 2-leaf stage, visually evaluated after 10 to 14 days
# Description: as §2
# [12] = system: blackgrass (Alopecurus myosuroides); experiment: Test A1 postemergence, blackgrass; settings: Postemergence, 0 to 100 scale (0 no effect, 100 complete control)
# Description: as §1
# [13] = system: Pigweed, Palmer (palmer amaranth, palmer pigweed, Amaranthus palmeri); experiment: Test A1 preemergence, Pigweed, Palmer
# Description: as §1
# soybean (Glycine max) [14] = experiment: Test A1 preemergence, soybean
# Description: as §1
# kochia (Bassia scoparia) [15] = experiment: Test A1 preemergence, kochia
# Description: as §1
# [16] = system: goosegrass (Eleusine indica); experiment: Test A1 preemergence, goosegrass
# Description: as §1
# [17] = system: ragweed (common ragweed, Ambrosia artemisiifolia); experiment: Test A1 preemergence, ragweed
# Description: as §1
# soybean (Glycine max) [18] = experiment: Test A1 postemergence, soybean; settings: Postemergence
# Description: as §1
# corn (Zea mays) [19] = experiment: Test A1 postemergence, corn; settings: Postemergence
# Description: as §1
# [20] = system: Foxtail, Giant (giant foxtail, Setaria faberi); experiment: Test A1 preemergence, Foxtail, Giant
# Description: as §1
# kochia (Bassia scoparia) [21] = experiment: Test A1 postemergence, kochia; settings: Postemergence
# Description: as §1
# [22] = system: galium (catchweed bedstraw, Galium aparine); experiment: Test A1 postemergence, galium; settings: Postemergence
# Description: as §1
# [23] = system: ducksalad (Heteranthera limosa); experiment: Test B1 flooded paddy test, ducksalad; settings: 250 g ai/ha, Flood, applied to paddy water, 2-leaf stage, visually evaluated after 10 to 14 days
# Description: as §2
# [24] = system: Oat, Wild (wild oat, Avena fatua); experiment: Test A1 preemergence, Oat, Wild
# Description: as §1
# [25] = system: wheat (Triticum aestivum); experiment: Test A1 postemergence, wheat; settings: Postemergence
# Description: as §1
# corn (Zea mays) [26] = experiment: Test A postemergence, corn; settings: Postemergence
# Summary of the method: (§3)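 Compounds in non-phytotoxic solvent with surfactant. Soil: loam/sand. Preemergence via directed soil spray after seeding; postemergence on seedlings 2–10 cm, one- to two-leaf.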
# [27] = system: Ryegrass, Italian (Italian ryegrass, Lolium multiflorum); experiment: Test A postemergence, Ryegrass, Italian; settings: Postemergence
# Summary of the method: as §3
# [28] = system: Foxtail, Giant (giant foxtail, Setaria faberi); experiment: Test A preemergence, Foxtail, Giant; settings: Preemergence
# Summary of the method: as §3
# kochia (Bassia scoparia) [29] = experiment: Test A postemergence, kochia; settings: Postemergence
# Summary of the method: as §3
# [30] = system: ragweed (common ragweed, Ambrosia artemisiifolia); experiment: Test A postemergence, ragweed; settings: Postemergence
# Summary of the method: as §3
# [31] = system: Ryegrass, Italian (Italian ryegrass, Lolium multiflorum); experiment: Test A preemergence, Ryegrass, Italian; settings: Preemergence
# Summary of the method: as §3
# [32] = system: ragweed (common ragweed, Ambrosia artemisiifolia); experiment: Test A preemergence, ragweed; settings: Preemergence
# Summary of the method: as §3
# [33] = system: barnyardgrass (Echinochloa crus-galli); experiment: Test A postemergence, barnyardgrass; settings: Postemergence
# Summary of the method: as §3
# kochia (Bassia scoparia) [34] = experiment: Test A preemergence, kochia; settings: Preemergence
# Summary of the method: as §3
# [35] = system: pigweed (Amaranthus retroflexus); experiment: Test A postemergence, pigweed; settings: Postemergence
# Summary of the method: as §3
# [36] = system: blackgrass (Alopecurus myosuroides); experiment: Test A postemergence, blackgrass; settings: Postemergence
# Summary of the method: as §3
# [37] = system: Foxtail, Giant (giant foxtail, Setaria faberi); experiment: Test A postemergence, Foxtail, Giant; settings: Postemergence
# Summary of the method: as §3
# [38] = system: galium (catchweed bedstraw, Galium aparine); experiment: Test A postemergence, galium; settings: Postemergence
# Summary of the method: as §3
# [39] = system: barnyardgrass (Echinochloa crus-galli); experiment: Test A preemergence, barnyardgrass; settings: Preemergence
# Summary of the method: as §3
# [40] = system: pigweed (Amaranthus retroflexus); experiment: Test A preemergence, pigweed
# Summary of the method: as §3
# [41] = system: wheat (Triticum aestivum); experiment: Test A postemergence, wheat; settings: Postemergence
# Summary of the method: as §3
# [42] = 31 g ai/ha, 0 to 100 scale (0 no effect, 100 complete control), 10 days
# [43] = 31 g ai/ha, 0 to 100 scale (0 no effect, 100 complete control)
# [44] = 125 g ai/ha, 0 to 100 scale, 0 no effect, 100 complete control
# [45] = 31 g ai/ha, visual injury on 0 to 100 scale (0 no effect, 100 complete control), approx. 10 days
# [46] = 125 g ai/ha, 0 to 100 scale (0 no effect, 100 complete control)
# [47] = 31 g ai/ha, visual injury, 0 to 100 scale (0 no effect, 100 complete control), approx. 10 days
# [48] = 125 g ai/ha, visual injury on 0 to 100 scale (0 no effect, 100 complete control), approximately 10 days
smiles,measurement,setting,value
CCC1ON=C(c2cc(N(C(=O)OCC(C)C)S(=O)(=O)C(F)(F)F)c(C)cc2C)C1CC (stereo not drawn) [Compound 345],"Plant response rating, Ragweed",[1]; [42],30
same,"Plant response rating, Ragweed","[1]; 125 g ai/ha, 0 to 100 scale",70
same,"Plant response rating, Rice (0 to 100 scale, 0 is no effect, 100 is complete control)",rice (Oryza sativa),25
same,"Plant response rating, Ryegrass, Italian",[2]; [42],20
same,"Plant response rating, Ryegrass, Italian","[2]; 125 g ai/ha, 0 to 100 scale",60
same,"Plant response rating, Pigweed, Palmer",[3]; [42],40
same,"Plant response rating, Pigweed, Palmer","[3]; 125 g ai/ha, 0 to 100 scale",60
same,"Plant response rating, Wheat",[4]; [43],30
same,"Plant response rating, Wheat",[4]; [44],10
same,"Plant response rating, Oat, Wild",[5]; [42],20
same,"Plant response rating, Oat, Wild","[5]; 125 g ai/ha, 0 to 100 scale",40
same,"Plant response rating, Blackgrass",[6]; [43],40
same,"Plant response rating, Blackgrass",[6]; [44],70
same,"Plant response rating, Goosegrass",[7]; [42],0
same,"Plant response rating, Goosegrass","[7]; 125 g ai/ha, 0 to 100 scale",70
same,"Plant response rating, Ryegrass, Italian",[8]; [43],30
same,"Plant response rating, Ryegrass, Italian",[8]; [44],80
same,"Plant response rating, Corn",corn (Zea mays) [9]; [43],10
same,"Plant response rating, Corn",corn (Zea mays) [9]; [44],10
same,"Plant response rating, Foxtail, Giant",[10]; [42],30
same,"Plant response rating, Foxtail, Giant","[10]; 125 g ai/ha, 0 to 100 scale",50
same,"Plant response rating, Barnyardgrass (0 to 100 scale, 0 is no effect, 100 is complete control)",[11],95
same,"Plant response rating, Blackgrass","[12]; 31 g ai/ha, 10 days",20
same,"Plant response rating, Blackgrass",[12]; 125 g ai/ha,40
same,"Plant response rating, Pigweed, Palmer",[13]; [43],80
same,"Plant response rating, Pigweed, Palmer",[13]; [44],100
same,"Plant response rating, Soybean",soybean (Glycine max) [14]; [43],0
same,"Plant response rating, Soybean",soybean (Glycine max) [14]; [44],0
same,"Plant response rating, Kochia",kochia (Bassia scoparia) [15]; [43],20
same,"Plant response rating, Kochia",kochia (Bassia scoparia) [15]; [44],30
same,"Plant response rating, Goosegrass",[16]; [43],30
same,"Plant response rating, Goosegrass",[16]; [44],90
same,"Plant response rating, Ragweed",[17]; [43],0
same,"Plant response rating, Ragweed",[17]; [44],0
same,"Plant response rating, Soybean",soybean (Glycine max) [18]; [42],40
same,"Plant response rating, Soybean","soybean (Glycine max) [18]; 125 g ai/ha, 0 to 100 scale",50
same,"Plant response rating, Corn",corn (Zea mays) [19]; [42],0
same,"Plant response rating, Corn","corn (Zea mays) [19]; 125 g ai/ha, 0 to 100 scale",50
same,"Plant response rating, Foxtail, Giant",[20]; [43],40
same,"Plant response rating, Foxtail, Giant",[20]; [44],100
same,"Plant response rating, Kochia",kochia (Bassia scoparia) [21]; [42],30
same,"Plant response rating, Kochia","kochia (Bassia scoparia) [21]; 125 g ai/ha, 0 to 100 scale",80
same,"Plant response rating, Galium",[22]; [42],80
same,"Plant response rating, Galium","[22]; 125 g ai/ha, 0 to 100 scale",100
same,"Plant response rating, Ducksalad (0 to 100 scale, 0 is no effect, 100 is complete control)",[23],30
same,"Plant response rating, Oat, Wild",[24]; [43],20
same,"Plant response rating, Oat, Wild",[24]; [44],10
same,"Plant response rating, Wheat",[25]; [42],30
same,"Plant response rating, Wheat","[25]; 125 g ai/ha, 0 to 100 scale",60
CCOC1CCCN(C(=O)c2cc(NS(=O)(=O)C(F)(F)F)c(C)cc2C)C1 (stereo not drawn) [Compound 154],"Plant response rating, Corn",corn (Zea mays) [26]; [45],0
same,"Plant response rating, Corn",corn (Zea mays) [26]; [46],10
same,"Plant response rating, Ryegrass, Italian",[27]; [45],0
same,"Plant response rating, Ryegrass, Italian",[27]; [46],0
same,"Plant response rating, Foxtail, Giant",[28]; [47],60
same,"Foxtail, Giant plant response rating",[28]; [48],90
same,"Plant response rating, Kochia",kochia (Bassia scoparia) [29]; [45],10
same,"Plant response rating, Kochia",kochia (Bassia scoparia) [29]; [46],30
same,"Plant response rating, Ragweed",[30]; [45],0
same,"Plant response rating, Ragweed",[30]; [46],20
same,"Plant response rating, Ryegrass, Italian",[31]; [47],20
same,"Ryegrass, Italian plant response rating",[31]; [48],70
same,"Plant response rating, Ragweed",[32]; [47],50
same,Ragweed plant response rating,[32]; [48],80
same,"Plant response rating, Barnyardgrass",[33]; [45],30
same,"Plant response rating, Barnyardgrass",[33]; [46],70
same,"Plant response rating, Kochia",kochia (Bassia scoparia) [34]; [47],0
same,Kochia plant response rating,kochia (Bassia scoparia) [34]; [48],40
same,"Plant response rating, Pigweed",[35]; [45],40
same,"Plant response rating, Pigweed",[35]; [46],60
same,"Plant response rating, Blackgrass",[36]; [45],0
same,"Plant response rating, Blackgrass",[36]; [46],20
same,"Plant response rating, Foxtail, Giant",[37]; [45],20
same,"Plant response rating, Foxtail, Giant",[37]; [46],20
same,"Plant response rating, Galium",[38]; [45],50
same,"Plant response rating, Galium",[38]; [46],80
same,"Plant response rating, Barnyardgrass",[39]; [47],0
same,Barnyardgrass plant response rating,[39]; [48],50
same,"Plant response rating, Pigweed",[40]; [47],20
same,Pigweed plant response rating,[40]; [48],100
same,"Plant response rating, Wheat",[41]; [45],30
same,"Plant response rating, Wheat",[41]; [46],70
